# According to patent EP3193856B1, “FORMULATION” (Pharmaq AS, priority 2014, dated 2016):
# Read-outs that look alike come from different tables or passages of the source.
# Assays:
# Atlantic salmon [1] = assay: Safety of formulations based on different solvents after intraperitoneal injection; assay type: in vivo; conditions: i.p. 0.2 ml; 37.8 g, freshwater 17°C; 3 week period
# Experimental: Atlantic salmon (average size: 37.8 g) kept in freshwater (17°C) were divided into 11 groups of 5 or 25 fish per group. Mortality was then logged over a 3 week period. […]
# salmonids = conditions: Benville et al 1968; cited from earlier work
# Atlantic salmon [2] = conditions: in vivo, ip, 3 months
# Experimental: To investigate the toxicity of the polar solvent further, formulations comprising different amounts of DMSO were prepared as detailed in Table 4. The formulations were intraperitoneally injected in a single dose into Atlantic salmon (19 - 38 g) kept in freshwater (8 - 17 °C). The eventual toxicity induced by each formulation was assessed by continuous registration of mortality up until 3 months post injection, and is shown in Table 4.
# Therefore, it was extremely surprising to find that doses as low as about 1 g/kg cause mortality in Atlantic salmon.
# [3] = Solubility of hexaflumuron, solvent added gradually until complete dissolution; assay type: physicochemical; conditions: for solubility: thermodynamic from solid
# Experimental: In order to produce a formulation in which hexaflumuron was present in stable solution, the solubility of hexaflumuron in various other solvents was investigated. Solubility was determined by adding each solvent gradually to a specific mass of hexaflumuron until complete dissolution was observed.
# Lepeophtheirus salmonis = assay: Sea lice challenge of treated Atlantic salmon; assay type: in vivo; conditions: for Mean number of lice per fish Treated group: chalimus stage counted 2 weeks post challenge, n=10; for Relative effect of treatment: versus untreated group
# Experimental: Atlantic salmon (total n=180) were kept in full seawater (3.5% salinity, 12°C). Half of the population (n=90) were treated with parasiticide (in this case hexaflumuron) on day 0. Treated and untreated fish (n=10 per group) were randomly collected from each group and challenged with copepodids of Lepeophtheirus salmonis in a common challenge tank during a 12 weeks period. This was done six times after treatments, in weeks 1, 3, 6, 8, 10 and 12 post treatment. The number of lice reaching chalimus stage was registered on each fish 2 weeks post challenge. Concentration of hexaflumuron in a portion of muscle with skin was also measured in each fish at the time of lice count.
# [4] = Maximum solubility of hexaflumuron in PEG/DMSO/CA as a function of PEG molecular weight (Figure 6); assay type: physicochemical; conditions: PEG600/DMSO/CA mixture, organic solvent or mixture, thermodynamic from solid; formulation with 85% by weight PEG600 and 15% by weight DMSO
# Experimental: An experiment was performed in order to investigate the solubility of parasiticide (hexaflumuron) in a formulation comprising PEG (85 mass%), DMSO (15 mass%), and CA (0.3 volume %) as a function of PEG molecular weight. Increasing amounts of hexaflumuron were dissolved in different mixtures of PEG/DMSO/CA (85/15/0.3) with PEG molecular weights ranging from 200 to 600.
# [5] = cited from earlier work
compound,measurement,setting,value
COCC(C)O (stereo not shown) [1-methoxy-2-propanol],% Mortality,Atlantic salmon [1],100%
"C[S+](C)[O-] [DMSO, Dimethyl sulfoxide]",LD50,salmonids,12000 to 17000 mg/kg
same,dose reported not to give any mortality,salmonids,7050 mg/kg
same,doses at which DMSO was found to be toxic,Atlantic salmon [2],> 1000 mg/kg
CCOC(C)=O [Ethyl acetate],% Mortality,Atlantic salmon [1],100%
O=C(NC(=O)c1c(F)cccc1F)Nc1cc(Cl)c(OC(F)(F)C(F)F)c(Cl)c1 [Hexaflumuron],solubility,"[3]; oil or lipid, solvent: Isopropyl myristate",< 1 mg/mL
same,solubility,"[3]; oil or lipid, solvent: Paraffin Light Liquid",< 0.1 mg/mL
same,solubility,"[3]; organic solvent or mixture, solvent: Acetone",> 130 mg/mL
same,solubility,"[3]; organic solvent or mixture, solvent: DMA",> 300 mg/mL
same,solubility,"[3]; organic solvent or mixture, solvent: DMF",> 300 mg/mL
same,solubility,"[3]; organic solvent or mixture, solvent: DMSO",> 300 mg/mL
same,solubility,"[3]; organic solvent or mixture, solvent: Ethyl acetate",> 75 mg/mL
same,solubility,"[3]; organic solvent or mixture, solvent: NMP",> 300 mg/mL
same,solubility,"[3]; organic solvent or mixture, solvent: Propylene glycol (PG)",< 0.5 mg/mL
same,solubility,"[3]; organic solvent or mixture, solvent: Tetraglycol",> 75 mg/mL
same,solubility,"[3]; organic solvent or mixture, solvent: n-heptane",< 0.5 mg/mL
same,Hexaflumuron Solubility,[3]; solvent: DMSO,>300 mg/mL
same,Mean number of lice per fish Treated group,"Lepeophtheirus salmonis; challenged week 1 post treatment, Atlantic salmon, seawater 12°C",0
same,Mean number of lice per fish Treated group,Lepeophtheirus salmonis; challenged week 3 post treatment,0
same,Mean number of lice per fish Treated group,Lepeophtheirus salmonis; challenged week 6 post treatment,0
same,Mean number of lice per fish Treated group,Lepeophtheirus salmonis; challenged week 8 post treatment,0.2
same,Mean number of lice per fish Treated group,Lepeophtheirus salmonis; challenged week 10 post treatment,1.7
same,Mean number of lice per fish Treated group,Lepeophtheirus salmonis; challenged week 12 post treatment,27.6
same,Relative effect of treatment,Lepeophtheirus salmonis; week 1 post treatment,100%
same,Relative effect of treatment,Lepeophtheirus salmonis; week 3 post treatment,100%
same,Relative effect of treatment,Lepeophtheirus salmonis; week 6 post treatment,100%
same,Relative effect of treatment,Lepeophtheirus salmonis; week 8 post treatment,98%
same,Relative effect of treatment,Lepeophtheirus salmonis; week 10 post treatment,69%
same,Relative effect of treatment,Lepeophtheirus salmonis; week 12 post treatment,47%
same,solubility,[4],~130 mg/mL
same,Hexaflumuron Solubility,[5]; solvent: Methanol,11300 µg/mL
same,Hexaflumuron Solubility,[5]; solvent: Water,0.027 µg/mL
same,Hexaflumuron Solubility,"[5]; solvent: Water, listed as hexaflumuron",about 2.7 x 10^-5 mg/ml
same,Hexaflumuron Solubility,[5]; solvent: Xylene,5200 µg/mL
"CN1CCCC1=O [NMP, n-methyl-2-pyrrolidone]",% Mortality,Atlantic salmon [1],100%
"CC(O)CO (stereo not shown) [PG, propylene glycol]",% Mortality,Atlantic salmon [1],0%
Glycofurol,% Mortality,Atlantic salmon [1],100%
